How the values were obtained:
UACC-62 = experiment: Growth inhibition of human UACC62 cells after 48 hrs by sulforhodamine B protein assay; format: functional; conditions: UACC-62, 48 h
IGROV-1 = experiment: Growth inhibition of human IGROV1 cells after 48 hrs by sulforhodamine B protein assay; format: functional; conditions: IGROV-1, 48 h
OVCAR-3 = experiment: Growth inhibition of human OVCAR-3 cells after 48 hrs by sulforhodamine B protein assay; format: functional; conditions: OVCAR-3, 48 h
OVCAR-5 = experiment: Growth inhibition of human OVCAR5 cells after 48 hrs by sulforhodamine B protein assay; format: functional; conditions: OVCAR-5, 48 h
OVCAR-8 = experiment: Growth inhibition of human OVCAR8 cells after 48 hrs by sulforhodamine B protein assay; format: functional; conditions: OVCAR-8, 48 h
SK-OV-3 = experiment: Growth inhibition of human SKOV3 cells after 48 hrs by sulforhodamine B protein assay; format: functional; conditions: SK-OV-3, 48 h
786-0 = experiment: Growth inhibition of human 786-0 cells after 48 hrs by sulforhodamine B protein assay; format: functional; conditions: 786-0, 48 h
ACHN = experiment: Growth inhibition of human ACHN cells after 48 hrs by sulforhodamine B protein assay; format: functional
CAKI-1 = experiment: Growth inhibition of human Caki1 cells after 48 hrs by sulforhodamine B protein assay; format: functional; conditions: CAKI-1, 48 h
RXF 393 = experiment: Growth inhibition of human […] cells after 48 hrs by sulforhodamine B protein assay; format: functional; conditions: RXF 393, 48 h
SN12C = experiment: Growth inhibition of human SN12C cells after 48 hrs by sulforhodamine B protein assay; format: functional
TK-10 = experiment: Growth inhibition of human TK10 cells after 48 hrs by sulforhodamine B protein assay; format: functional; conditions: TK-10, 48 h
PC-3 = experiment: Growth inhibition of human PC3 cells after 48 hrs by sulforhodamine B protein assay; format: functional; conditions: PC-3, 48 h
DU-145 = experiment: Growth inhibition of human DU145 cells after 48 hrs by sulforhodamine B protein assay; format: functional; conditions: DU-145, 48 h
MCF7 = experiment: Growth inhibition of human MCF7 cells after 48 hrs by sulforhodamine B protein assay; format: functional; conditions: MCF7, 48 h
MDA-MB-231 = experiment: Growth inhibition of human MDA-MB-231 cells after 48 hrs by sulforhodamine B protein assay; format: functional; conditions: MDA-MB-231, 48 h
[1] = Growth inhibition of human Hs 578T cells after 48 hrs by sulforhodamine B protein assay; format: functional
MDA-MB-435 = experiment: Growth inhibition of human MDA-MB-435 cells after 48 hrs by sulforhodamine B protein assay; format: functional; conditions: MDA-MB-435, 48 h
BT-549 = experiment: Growth inhibition of human BT549 cells after 48 hrs by sulforhodamine B protein assay; format: functional; conditions: BT-549, 48 h
T47D = experiment: Growth inhibition of human T47D cells after 48 hrs by sulforhodamine B protein assay; format: functional
MDA-MB-468 = experiment: Growth inhibition of human MDA-MB-468 cells after 48 hrs by sulforhodamine B protein assay; format: functional; conditions: MDA-MB-468, 48 h
DNA = experiment: Binding affinity to calf thymus DNA assessed as change in melting temperature at a compound to DNA molar ratio of 1:5 at pH 7 by thermal denaturation assay; format: nucleic-acid assay; conditions: Bos taurus
[2] = target: T1, Type II restriction enzyme BamHI (Bacillus amyloliquefaciens) (UniProt P23940); experiment: Inhibition of Bacillus amyloliquefaciens BamH1-mediated pBR322 cleavage after 16 hrs by RED100-restriction endonuclease digestion assay
T1 sequence (whole entry): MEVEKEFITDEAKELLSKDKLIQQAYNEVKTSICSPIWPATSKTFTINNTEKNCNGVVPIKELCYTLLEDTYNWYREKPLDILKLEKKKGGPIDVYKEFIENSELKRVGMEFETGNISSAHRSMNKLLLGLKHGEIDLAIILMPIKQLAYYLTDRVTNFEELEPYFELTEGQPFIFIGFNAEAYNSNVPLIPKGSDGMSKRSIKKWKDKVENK

CCRF-CEM = experiment: Growth inhibition of human CCRF-CEM cells after 48 hrs by sulforhodamine B protein assay; format: functional
HL-60(TB) = experiment: Growth inhibition of human HL-60(TB) cells after 48 hrs by sulforhodamine B protein assay; format: functional; conditions: HL-60, 48 h
K562 = experiment: Growth inhibition of human K562 cells after 48 hrs by sulforhodamine B protein assay; format: functional; conditions: K562, 48 h
MOLT-4 = experiment: Growth inhibition of human MOLT4 cells after 48 hrs by sulforhodamine B protein assay; format: functional; conditions: MOLT-4, 48 h
[3] = Growth inhibition of human […] cells after 48 hrs by sulforhodamine B protein assay; format: functional
SR = experiment: Growth inhibition of human SR cells after 48 hrs by sulforhodamine B protein assay; format: functional
A549 = experiment: Growth inhibition of human A549 cells after 48 hrs by sulforhodamine B protein assay; format: functional; conditions: A549, 48 h
HOP-62 = experiment: Growth inhibition of human HOP62 cells after 48 hrs by sulforhodamine B protein assay; format: functional; conditions: HOP-62, 48 h
HOP-92 = experiment: Growth inhibition of human HOP92 cells after 48 hrs by sulforhodamine B protein assay; format: functional; conditions: HOP-92, 48 h
NCI-H23 = experiment: Growth inhibition of human NCI-H23 cells after 48 hrs by sulforhodamine B protein assay; format: functional; conditions: NCI-H23, 48 h
NCI-H460 = experiment: Growth inhibition of human NCI-H460 cells after 48 hrs by sulforhodamine B protein assay; format: functional; conditions: NCI-H460, 48 h
NCI-H522 = experiment: Growth inhibition of human NCI-H522 cells after 48 hrs by sulforhodamine B protein assay; format: functional; conditions: NCI-H522, 48 h
COLO 205 = experiment: Growth inhibition of human COLO205 cells after 48 hrs by sulforhodamine B protein assay; format: functional; conditions: COLO 205, 48 h
HCC 2998 = experiment: Growth inhibition of human HCC2998 cells after 48 hrs by sulforhodamine B protein assay; format: functional; conditions: HCC 2998, 48 h
HCT-116 = experiment: Growth inhibition of human HCT116 cells after 48 hrs by sulforhodamine B protein assay; format: functional; conditions: HCT-116, 48 h
HT-29 = experiment: Growth inhibition of human HT-29 cells after 48 hrs by sulforhodamine B protein assay; format: functional; conditions: HT-29, 48 h
KM12 = experiment: Growth inhibition of human KM12 cells after 48 hrs by sulforhodamine B protein assay; format: functional; conditions: KM12, 48 h
SW-620 = experiment: Growth inhibition of human SW620 cells after 48 hrs by sulforhodamine B protein assay; format: functional; conditions: SW-620, 48 h
SF-268 = experiment: Growth inhibition of human SF268 cells after 48 hrs by sulforhodamine B protein assay; format: functional; conditions: SF-268, 48 h
SF-539 = experiment: Growth inhibition of human SF539 cells after 48 hrs by sulforhodamine B protein assay; format: functional; conditions: SF-539, 48 h
SNB-19 = experiment: Growth inhibition of human SNB19 cells after 48 hrs by sulforhodamine B protein assay; format: functional; conditions: SNB-19, 48 h
SNB-75 = experiment: Growth inhibition of human SNB75 cells after 48 hrs by sulforhodamine B protein assay; format: functional; conditions: SNB-75, 48 h
U-251 = experiment: Growth inhibition of human U251 cells after 48 hrs by sulforhodamine B protein assay; format: functional; conditions: U-251, 48 h
LOX IMVI = experiment: Growth inhibition of human LOXIMVI cells after 48 hrs by sulforhodamine B protein assay; format: functional
Malme-3M = experiment: Growth inhibition of human MALME-3M cells after 48 hrs by sulforhodamine B protein assay; format: functional
M14 = experiment: Growth inhibition of human M14 cells after 48 hrs by sulforhodamine B protein assay; format: functional; conditions: M14, 48 h
SK-MEL-28 = experiment: Growth inhibition of human SK-MEL-28 cells after 48 hrs by sulforhodamine B protein assay; format: functional; conditions: SK-MEL-28, 48 h
SK-MEL-5 = experiment: Growth inhibition of human SK-MEL-5 cells after 48 hrs by sulforhodamine B protein assay; format: functional; conditions: SK-MEL-5, 48 h
A498 = experiment: Growth inhibition of human A498 cells after 48 hrs by sulforhodamine B protein assay; format: functional; conditions: A498, 48 h

## COc1cc2c(cc1OCCCN1CCN(CCCOc3cc4c(cc3OC)C(=O)N3CC(F)(F)C[C@H]3C=N4)CC1)N=C[C@@H]1CC(F)(F)CN1C2=O
UACC-62
  GI50: 3.05 µM
IGROV-1
  GI50: 1.92 µM
OVCAR-3
  GI50: 3.55 µM
OVCAR-5
  GI50: 3.83 µM
OVCAR-8
  GI50: 6.3 µM
SK-OV-3
  GI50: 8.64 µM
786-0
  GI50: 3.17 µM
ACHN
  GI50: 5.64 µM
CAKI-1
  GI50: 3.31 µM
RXF 393
  GI50: 2.14 µM
SN12C
  GI50: 4.05 µM
TK-10
  GI50: 4.38 µM
PC-3
  GI50: 3.06 µM
DU-145
  GI50: 3.63 µM
MCF7
  GI50: 2.02 µM
MDA-MB-231
  GI50: 4.29 µM
[1]
  GI50: 2.32 µM
MDA-MB-435
  GI50: 2.94 µM
BT-549
  GI50: 1.95 µM
T47D
  GI50: 3.25 µM
MDA-MB-468
  GI50: 1.38 µM
DNA
  ΔTm: 11 °C
[2]
  Activity: Dose-dependent effect
CCRF-CEM
  GI50: 0.97 µM
HL-60(TB)
  GI50: 1.18 µM
K562
  GI50: 1.74 µM
MOLT-4
  GI50: 2.02 µM
[3]
  GI50: 2.2 µM
SR
  GI50: 0.88 µM
A549
  GI50: 7.32 µM
HOP-62
  GI50: 3.17 µM
HOP-92
  GI50: 6.14 µM
NCI-H23
  GI50: 4.66 µM
NCI-H460
  GI50: 2.6 µM
NCI-H522
  GI50: 1.14 µM
COLO 205
  GI50: 3.09 µM
HCC 2998
  GI50: 5.4 µM
HCT-116
  GI50: 3.59 µM
HT-29
  GI50: 3.61 µM
KM12
  GI50: 4.1 µM
SW-620
  GI50: 2.61 µM
SF-268
  GI50: 3.57 µM
SF-539
  GI50: 3.05 µM
SNB-19
  GI50: 4.08 µM
SNB-75
  GI50: 5.52 µM
U-251
  GI50: 3.36 µM
LOX IMVI
  GI50: 1.89 µM
Malme-3M
  GI50: 2.8 µM
M14
  GI50: 3.25 µM
SK-MEL-28
  GI50: 1.86 µM
SK-MEL-5
  GI50: 4.28 µM
A498
  GI50: 2.43 µM

Reference: ChEMBL document CHEMBL1152723, “Remarkable enhancement in the DNA-binding ability of C2-fluoro substituted pyrrolo[2,1-c][1,4]benzodiazepines and their anticancer potential” (2009)
